Results from the supplement of paper PMC7017272.
± gives the standard deviation of the averaged measurements.

Assays:
UT-SCC-24A = assay: relative IC50 (midpoint of the fitted curve; maximal inhibition may be below 50%); higher = less potent; conditions: treatment time: 3 days
Experimental: (§1)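 HNSCC cell lines (500 cells/well, 384-well) were cultured on plastic, on top of (2D) or embedded (3D) in Matrigel or human leiomyoma matrix Myogel (500 ug/mL; Myogel 3D mixed with rat collagen I). Cells were treated for 3 days with 5 ten-fold concentrations of each drug, and viability was read by CellTiter-Glo. Viability was normalised to DMSO (0% inhibition) and 100 uM benzethonium chloride (100% inhibition) controls and fitted with the FIMM DSRT pipeline to give IC50 (nM), maximal % inhibition and the drug sensitivity score (DSS). Suffixes _1/_2/_3 on drug names are replicates.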

UT-SCC-106A = assay: relative IC50 (midpoint of the fitted curve; maximal inhibition may be below 50%); higher = less potent; conditions: treatment time: 3 days
In short: (§2)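 HPV-negative HNSCC cell lines were seeded at 500 cells/well in 384-well plates on plastic, on Matrigel- or Myogel-coated wells (500 µg/mL), or embedded in Matrigel or Myogel plus rat collagen I. Compounds were given at five 10-fold concentrations for 3 days, and viability was read by CellTiter-Glo 2.0 luminescence. Signals were normalised to vehicle (0.1% DMSO) and cell-killing control wells. Percent-inhibition dose–response curves were fitted in the FIMM pipeline to derive IC50, maximal inhibition and drug sensitivity score.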

UT-SCC-14 [1] = assay: as above; conditions: treatment time: 3 days
In short: as §2

UT-SCC-40 [2] = assay: as above; conditions: treatment time: 3 days
In short: as §2

UT-SCC-42B [3] = assay: as above; conditions: culture condition: on top of Myogel; treatment time: 3 days
In short: as §2

UT-SCC-8 [4] = assay: as above; conditions: culture condition: embedded in Myogel + collagen I; treatment time: 3 days
In short: as §2

UT-SCC-44 = assay: as above; conditions: treatment time: 3 days
In short: as §2

UT-SCC-28 [5] = assay: as above; conditions: culture condition: embedded in Myogel + collagen I; treatment time: 3 days
In short: as §2

UT-SCC-73 = assay: as above; conditions: treatment time: 3 days
In short: as §2

UT-SCC-42A [6] = assay: as above; conditions: treatment time: 3 days
In short: as §2

UT-SCC-81 [7] = assay: as above; conditions: treatment time: 3 days
In short: as §2

UT-SCC-24B [8] = assay: as above; conditions: culture condition: embedded in Myogel + collagen I; treatment time: 3 days
In short: as §2

UT-SCC-14 [9] = assay: maximal % inhibition of viability relative to DMSO; higher = stronger effect; conditions: treatment time: 3 days
Experimental: as §1, with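 “DMSO” for “DMSO (0% inhibition)”, “and” for “and 100 uM”, “chloride” for “chloride (100% inhibition)”, “DSS.” for “the drug sensitivity score (DSS).”, “_1/_2/_3” for “_1/_2/_3 on drug names”, “replicates. Only inhibition-mode (IC50) fits are kept.” for “replicates.”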

UT-SCC-40 [10] = assay: as above; conditions: treatment time: 3 days
Experimental: as §1, with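 “DMSO” for “DMSO (0% inhibition)”, “and” for “and 100 uM”, “chloride” for “chloride (100% inhibition)”, “DSS.” for “the drug sensitivity score (DSS).”, “_1/_2/_3” for “_1/_2/_3 on drug names”, “replicates. Only inhibition-mode (IC50) fits are kept.” for “replicates.”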

UT-SCC-42B [11] = assay: as above; conditions: treatment time: 3 days
Experimental: as §1, with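 “DMSO” for “DMSO (0% inhibition)”, “and” for “and 100 uM”, “chloride” for “chloride (100% inhibition)”, “DSS.” for “the drug sensitivity score (DSS).”, “_1/_2/_3” for “_1/_2/_3 on drug names”, “replicates. Only inhibition-mode (IC50) fits are kept.” for “replicates.”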

UT-SCC-8 [12] = assay: as above; conditions: treatment time: 3 days
Experimental: as §1, with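 “DMSO” for “DMSO (0% inhibition)”, “and” for “and 100 uM”, “chloride” for “chloride (100% inhibition)”, “DSS.” for “the drug sensitivity score (DSS).”, “_1/_2/_3” for “_1/_2/_3 on drug names”, “replicates. Only inhibition-mode (IC50) fits are kept.” for “replicates.”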

UT-SCC-28 [13] = assay: as above; conditions: treatment time: 3 days
Experimental: as §1, with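 “DMSO” for “DMSO (0% inhibition)”, “and” for “and 100 uM”, “chloride” for “chloride (100% inhibition)”, “DSS.” for “the drug sensitivity score (DSS).”, “_1/_2/_3” for “_1/_2/_3 on drug names”, “replicates. Only inhibition-mode (IC50) fits are kept.” for “replicates.”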

UT-SCC-42A [14] = assay: as above; conditions: treatment time: 3 days
Experimental: as §1, with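 “DMSO” for “DMSO (0% inhibition)”, “and” for “and 100 uM”, “chloride” for “chloride (100% inhibition)”, “DSS.” for “the drug sensitivity score (DSS).”, “_1/_2/_3” for “_1/_2/_3 on drug names”, “replicates. Only inhibition-mode (IC50) fits are kept.” for “replicates.”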

UT-SCC-81 [15] = assay: as above; conditions: treatment time: 3 days
Experimental: as §1, with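 “DMSO” for “DMSO (0% inhibition)”, “and” for “and 100 uM”, “chloride” for “chloride (100% inhibition)”, “DSS.” for “the drug sensitivity score (DSS).”, “_1/_2/_3” for “_1/_2/_3 on drug names”, “replicates. Only inhibition-mode (IC50) fits are kept.” for “replicates.”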

UT-SCC-24B [16] = assay: as above; conditions: treatment time: 3 days
Experimental: as §1, with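 “DMSO” for “DMSO (0% inhibition)”, “and” for “and 100 uM”, “chloride” for “chloride (100% inhibition)”, “DSS.” for “the drug sensitivity score (DSS).”, “_1/_2/_3” for “_1/_2/_3 on drug names”, “replicates. Only inhibition-mode (IC50) fits are kept.” for “replicates.”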

[17] = culture condition: embedded in Myogel + collagen I
[18] = culture condition: on top of Myogel
[19] = culture condition: plastic 2D (no matrix)
[20] = culture condition: embedded in Matrigel
[21] = culture condition: on top of Matrigel

With `CO[C@H]1C[C@@H]2CC[C@@H](C)[C@@](O)(O2)C(=O)C(=O)N2CCCC[C@H]2C(=O)O[C@H]([C@H](C)C[C@@H]2CC[C@@H](OP(C)(C)=O)[C@H](OC)C2)CC(=O)[C@H](C)/C=C(\C)[C@@H](O)[C@@H](OC)C(=O)[C@H](C)C[C@H](C)/C=C/C=C/C=C/1C` [Ridaforolimus] the “relative IC50” value (UT-SCC-24A; [17]) was 2.61 nM, the “relative IC50” value (UT-SCC-24A; [18]) was 3.5 nM and the “relative IC50” value (UT-SCC-24A; [19]) was 1.98 nM. The “relative IC50” value (UT-SCC-106A; [20]) was 6.54 nM, the “relative IC50” value (UT-SCC-106A; [18]) was 8.68 nM and the “relative IC50” value (UT-SCC-14 [1]; [20]) was 0.761 nM. For the same compound, the “relative IC50” value (UT-SCC-14 [1]; [17]) was 0.711 nM, the “relative IC50” value (UT-SCC-14 [1]; [18]) was 0.632 nM and the “relative IC50” value (UT-SCC-14 [1]; [19]) was 0.876 nM. The “relative IC50” value (UT-SCC-40 [2]; [20]) was 2.37 nM, the “relative IC50” value (UT-SCC-40 [2]; [18]) was 1.94 nM and the “relative IC50” value (UT-SCC-40 [2]; [19]) was 1.94 nM. For the same compound, the “relative IC50” value (UT-SCC-42B [3]) was 17.4 nM, the “relative IC50” value (UT-SCC-8 [4]) was 6.75 nM and the “relative IC50” value (UT-SCC-44; [20]) was 0.909 nM. The “relative IC50” value (UT-SCC-44; [17]) was 4.16 nM, the “relative IC50” value (UT-SCC-44; [18]) was 0.271 nM and the “relative IC50” value (UT-SCC-28 [5]) was 4.01 nM. For the same compound, the “relative IC50” value (UT-SCC-73; [21]) was 0.734 nM, the “relative IC50” value (UT-SCC-73; [18]) was 1.48 nM and the “relative IC50” value (UT-SCC-73; [19]) was 3 nM. For the same compound, the “relative IC50” value (UT-SCC-42A [6]; [20]) was 6.44 nM, the “relative IC50” value (UT-SCC-42A [6]; [17]) was 6.31 nM and the “relative IC50” value (UT-SCC-42A [6]; [21]) was 1.65 nM. For the same compound, the “relative IC50” value (UT-SCC-42A [6]; [19]) was 4.54 nM, the “relative IC50” value (UT-SCC-81 [7]; [17]) was 2.46 nM and the “relative IC50” value (UT-SCC-81 [7]; [21]) was 1.38 nM. The “relative IC50” value (UT-SCC-24B [8]) was 1.48 nM, the “maximal % inhibition of viability” value (UT-SCC-14 [9]; [20]) was 53.4 ± 6.2% and the “maximal % inhibition of viability” value (UT-SCC-14 [9]; [17]) was 57.5 ± 6.6%. The “maximal % inhibition of viability” value (UT-SCC-14 [9]; [21]) was 54.5 ± 9.4%, the “maximal % inhibition of viability” value (UT-SCC-14 [9]; [18]) was 48.6 ± 5.5% and the “maximal % inhibition of viability” value (UT-SCC-14 [9]; [19]) was 50.7 ± 12%. The “maximal % inhibition of viability” value (UT-SCC-40 [10]; [20]) was 29.4 ± 6.9%, the “maximal % inhibition of viability” value (UT-SCC-40 [10]; [17]) was 39 ± 9.4% and the “maximal % inhibition of viability” value (UT-SCC-40 [10]; [21]) was 27 ± 5.7%. For the same compound, the “maximal % inhibition of viability” value (UT-SCC-40 [10]; [18]) was 27.4 ± 1.4%, the “maximal % inhibition of viability” value (UT-SCC-40 [10]; [19]) was 22.4 ± 1.4% and the “maximal % inhibition of viability” value (UT-SCC-42B [11]; [20]) was 16.8 ± 7.8%. The “maximal % inhibition of viability” value (UT-SCC-42B [11]; [21]) was 14.9 ± 2.2%, the “maximal % inhibition of viability” value (UT-SCC-42B [11]; [18]) was 14.2 ± 3.1% and the “maximal % inhibition of viability” value (UT-SCC-42B [11]; [19]) was 14.5 ± 1.9%. For the same compound, the “maximal % inhibition of viability” value (UT-SCC-8 [12]; [20]) was 45 ± 7%, the “maximal % inhibition of viability” value (UT-SCC-8 [12]; [17]) was 33.2 ± 7.1% and the “maximal % inhibition of viability” value (UT-SCC-8 [12]; [21]) was 38.4 ± 1.7%. For the same compound, the “maximal % inhibition of viability” value (UT-SCC-8 [12]; [18]) was 49.2 ± 8.1%, the “maximal % inhibition of viability” value (UT-SCC-8 [12]; [19]) was 46.9 ± 5.1% and the “maximal % inhibition of viability” value (UT-SCC-28 [13]; [20]) was 30.9 ± 9.3%. For the same compound, the “maximal % inhibition of viability” value (UT-SCC-28 [13]; [17]) was 31.5 ± 18%, the “maximal % inhibition of viability” value (UT-SCC-28 [13]; [21]) was 34.8 ± 4.5% and the “maximal % inhibition of viability” value (UT-SCC-28 [13]; [19]) was 33.4 ± 2.9%. The “maximal % inhibition of viability” value (UT-SCC-42A [14]; [20]) was 29.5 ± 6.2%, the “maximal % inhibition of viability” value (UT-SCC-42A [14]; [17]) was 42.7 ± 5% and the “maximal % inhibition of viability” value (UT-SCC-42A [14]; [21]) was 33.3 ± 2.6%. The “maximal % inhibition of viability” value (UT-SCC-42A [14]; [18]) was 37.1 ± 6.1%, the “maximal % inhibition of viability” value (UT-SCC-42A [14]; [19]) was 35.8 ± 5% and the “maximal % inhibition of viability” value (UT-SCC-81 [15]; [20]) was 50 ± 11%. The “maximal % inhibition of viability” value (UT-SCC-81 [15]; [17]) was 64 ± 9.1%, the “maximal % inhibition of viability” value (UT-SCC-81 [15]; [21]) was 43.9 ± 1.1% and the “maximal % inhibition of viability” value (UT-SCC-81 [15]; [18]) was 54.6 ± 4.2%. For the same compound, the “maximal % inhibition of viability” value (UT-SCC-81 [15]; [19]) was 48.4 ± 5.3%, the “maximal % inhibition of viability” value (UT-SCC-24B [16]; [20]) was 21.4 ± 6.2% and the “maximal % inhibition of viability” value (UT-SCC-24B [16]; [17]) was 38.1 ± 5.8%. The “maximal % inhibition of viability” value (UT-SCC-24B [16]; [21]) was 26.7 ± 6.1%, the “maximal % inhibition of viability” value (UT-SCC-24B [16]; [18]) was 31.1 ± 7.1% and the “maximal % inhibition of viability” value (UT-SCC-24B [16]; [19]) was 27.4 ± 3.4%.
